Tests used:
Assay in all cases: KINOMEscan competition binding
[1] = target: KDR (human) (UniProt P35968)
[2] = target: CDK17 (human) (UniProt Q00537)
[3] = target: RIOK1 (human) (UniProt Q9BRS2)
[4] = target: CDK19 (human) (UniProt Q9BWU1)
[5] = tested on: FLT3 (human), P36888 [ITD]
[6] = target: CDK2 (human) (UniProt P24941)
[7] = target: ROCK2 (human) (UniProt O75116)
[8] = target: BMPR1A (human) (UniProt P36894)
[9] = target: DYRK1B (human) (UniProt Q9Y463)
[10] = target: IKBKB (human) (UniProt O14920)
[11] = target: LTK (human) (UniProt P29376)
[12] = target: PTK2B (human) (UniProt Q14289)
[13] = target: PIK3C2G (human) (UniProt O75747)
[14] = target: MAP2K1 (human) (UniProt Q02750)
[15] = target: PKN1 (human) (UniProt Q16512)
[16] = target: ACVR1 (human) (UniProt Q04771)
[17] = target: MYLK2 (human) (UniProt Q9H1R3)
[18] = target: MAP3K4 (human) (UniProt Q9Y6R4)
[19] = tested on: RET (human), P07949 [M918T]
[20] = target: SRC (human) (UniProt P12931)
[21] = tested on: RET (human), P07949 [V804M]
[22] = target: CSNK1A1 (human) (UniProt P48729)
[23] = target: MAPK3 (human) (UniProt P27361)
[24] = target: STK38 (human) (UniProt Q15208)
[25] = tested on: EGFR (human), P00533 [A750P; 747-749 del]
[26] = target: MAP3K12 (human) (UniProt Q12852)
[27] = target: PRKCH (human) (UniProt P24723)
[28] = target: EGFR (human) (UniProt P00533)
[29] = target: HIPK3 (human) (UniProt Q9H422)
[30] = target: PKN2 (human) (UniProt Q16513)
[31] = target: SYK (human) (UniProt P43405)
[32] = target: NEK7 (human) (UniProt Q8TDX7)
[33] = target: MATK (human) (UniProt P42679)
[34] = target: PDGFRA (human) (UniProt P16234)
[35] = target: PRKD1 (human) (UniProt Q15139)
[36] = target: PLK4 (human) (UniProt O00444)
[37] = target: SLK (human) (UniProt Q9H2G2)
[38] = target: RPS6KA1 KD2 (human) (UniProt Q15418)
[39] = target: PAK1 (human) (UniProt Q13153)
[40] = target: ACVRL1 (human) (UniProt P37023)
[41] = tested on: KIT (human), P10721 [V559D/V654A]
[42] = target: TTK (human) (UniProt P33981)
[43] = target: DCLK2 (human) (UniProt Q8N568)

Sequence of FLT3 (human), P36888 [ITD] (P36888 whole entry, looked up, change not shown): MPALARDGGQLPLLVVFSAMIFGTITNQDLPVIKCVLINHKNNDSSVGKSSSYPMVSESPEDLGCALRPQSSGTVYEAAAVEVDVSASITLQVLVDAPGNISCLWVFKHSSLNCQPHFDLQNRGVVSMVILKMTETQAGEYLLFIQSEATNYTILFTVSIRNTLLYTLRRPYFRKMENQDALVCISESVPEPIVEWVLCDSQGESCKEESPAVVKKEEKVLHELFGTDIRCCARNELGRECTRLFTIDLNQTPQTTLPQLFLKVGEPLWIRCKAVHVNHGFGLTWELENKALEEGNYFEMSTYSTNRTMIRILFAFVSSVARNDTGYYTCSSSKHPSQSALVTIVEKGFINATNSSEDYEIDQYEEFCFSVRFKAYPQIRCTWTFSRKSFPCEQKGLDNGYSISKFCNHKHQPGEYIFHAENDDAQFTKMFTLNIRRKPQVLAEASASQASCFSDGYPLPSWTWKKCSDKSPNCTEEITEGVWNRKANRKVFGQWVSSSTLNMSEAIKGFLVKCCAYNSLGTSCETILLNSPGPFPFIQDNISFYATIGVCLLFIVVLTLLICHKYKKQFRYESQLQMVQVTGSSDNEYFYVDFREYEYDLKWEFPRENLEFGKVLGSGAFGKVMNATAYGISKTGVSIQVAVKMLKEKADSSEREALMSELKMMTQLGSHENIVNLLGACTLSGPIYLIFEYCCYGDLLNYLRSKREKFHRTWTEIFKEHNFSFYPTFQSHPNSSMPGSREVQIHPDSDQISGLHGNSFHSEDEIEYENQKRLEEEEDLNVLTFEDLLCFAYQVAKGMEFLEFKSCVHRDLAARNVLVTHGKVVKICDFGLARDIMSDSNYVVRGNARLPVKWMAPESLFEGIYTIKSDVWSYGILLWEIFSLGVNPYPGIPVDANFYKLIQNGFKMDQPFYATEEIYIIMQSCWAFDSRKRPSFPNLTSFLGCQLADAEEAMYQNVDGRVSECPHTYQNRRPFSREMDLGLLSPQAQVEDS
Sequence of CDK17 (human) (Q00537 whole entry, looked up): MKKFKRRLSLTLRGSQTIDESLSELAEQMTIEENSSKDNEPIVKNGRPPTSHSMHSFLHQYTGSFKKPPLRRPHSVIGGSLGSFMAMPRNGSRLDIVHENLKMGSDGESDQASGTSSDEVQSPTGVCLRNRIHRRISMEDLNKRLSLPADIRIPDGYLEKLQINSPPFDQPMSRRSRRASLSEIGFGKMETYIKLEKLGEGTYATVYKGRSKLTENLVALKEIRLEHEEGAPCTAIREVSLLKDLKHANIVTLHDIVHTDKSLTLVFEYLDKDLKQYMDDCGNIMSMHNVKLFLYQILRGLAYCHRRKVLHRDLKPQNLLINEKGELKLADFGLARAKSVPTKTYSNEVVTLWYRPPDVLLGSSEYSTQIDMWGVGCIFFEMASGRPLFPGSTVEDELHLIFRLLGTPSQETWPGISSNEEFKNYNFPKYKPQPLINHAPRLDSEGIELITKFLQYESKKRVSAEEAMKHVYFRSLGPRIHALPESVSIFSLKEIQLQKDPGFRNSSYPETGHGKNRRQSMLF
Sequence of PAK1 (human) (Q13153 whole entry, looked up): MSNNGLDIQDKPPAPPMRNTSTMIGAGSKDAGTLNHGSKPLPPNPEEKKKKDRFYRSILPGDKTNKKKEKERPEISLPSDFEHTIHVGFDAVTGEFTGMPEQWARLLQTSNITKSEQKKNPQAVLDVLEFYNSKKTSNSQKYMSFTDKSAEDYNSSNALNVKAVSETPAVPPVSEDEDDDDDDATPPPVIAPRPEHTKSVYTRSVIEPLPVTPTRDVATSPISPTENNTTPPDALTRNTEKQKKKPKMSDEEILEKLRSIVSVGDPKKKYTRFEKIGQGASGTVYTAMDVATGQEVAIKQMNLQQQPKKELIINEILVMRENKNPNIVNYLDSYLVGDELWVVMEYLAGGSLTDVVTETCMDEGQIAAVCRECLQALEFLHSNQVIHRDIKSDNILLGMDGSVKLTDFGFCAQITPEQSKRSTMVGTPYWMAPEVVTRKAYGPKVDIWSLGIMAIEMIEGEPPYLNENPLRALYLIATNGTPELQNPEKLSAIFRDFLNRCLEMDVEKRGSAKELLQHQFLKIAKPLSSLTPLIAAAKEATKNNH
Sequence of LTK (human) (P29376 whole entry, looked up): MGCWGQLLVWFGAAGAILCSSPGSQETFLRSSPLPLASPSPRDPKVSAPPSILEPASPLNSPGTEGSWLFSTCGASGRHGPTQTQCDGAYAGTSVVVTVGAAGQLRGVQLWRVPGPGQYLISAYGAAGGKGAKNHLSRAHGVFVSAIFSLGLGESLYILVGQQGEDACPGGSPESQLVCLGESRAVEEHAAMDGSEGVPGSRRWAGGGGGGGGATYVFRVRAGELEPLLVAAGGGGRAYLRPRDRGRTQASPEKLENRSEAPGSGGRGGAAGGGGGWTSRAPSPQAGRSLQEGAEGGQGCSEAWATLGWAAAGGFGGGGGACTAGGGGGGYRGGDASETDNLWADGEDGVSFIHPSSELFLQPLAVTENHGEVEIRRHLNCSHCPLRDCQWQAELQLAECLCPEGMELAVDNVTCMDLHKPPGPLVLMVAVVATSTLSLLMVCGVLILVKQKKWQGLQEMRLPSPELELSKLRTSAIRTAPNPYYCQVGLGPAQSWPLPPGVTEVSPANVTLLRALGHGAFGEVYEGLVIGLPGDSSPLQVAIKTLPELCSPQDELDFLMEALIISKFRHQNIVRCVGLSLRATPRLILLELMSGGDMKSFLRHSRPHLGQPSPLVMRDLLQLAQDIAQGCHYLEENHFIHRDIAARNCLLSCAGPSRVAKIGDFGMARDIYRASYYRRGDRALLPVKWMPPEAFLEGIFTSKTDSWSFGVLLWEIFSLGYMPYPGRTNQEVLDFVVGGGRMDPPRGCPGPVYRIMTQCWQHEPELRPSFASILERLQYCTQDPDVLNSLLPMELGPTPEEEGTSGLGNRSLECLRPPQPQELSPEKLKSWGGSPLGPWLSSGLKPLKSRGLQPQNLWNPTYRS
Sequence of PRKCH (human) (P24723 whole entry, looked up): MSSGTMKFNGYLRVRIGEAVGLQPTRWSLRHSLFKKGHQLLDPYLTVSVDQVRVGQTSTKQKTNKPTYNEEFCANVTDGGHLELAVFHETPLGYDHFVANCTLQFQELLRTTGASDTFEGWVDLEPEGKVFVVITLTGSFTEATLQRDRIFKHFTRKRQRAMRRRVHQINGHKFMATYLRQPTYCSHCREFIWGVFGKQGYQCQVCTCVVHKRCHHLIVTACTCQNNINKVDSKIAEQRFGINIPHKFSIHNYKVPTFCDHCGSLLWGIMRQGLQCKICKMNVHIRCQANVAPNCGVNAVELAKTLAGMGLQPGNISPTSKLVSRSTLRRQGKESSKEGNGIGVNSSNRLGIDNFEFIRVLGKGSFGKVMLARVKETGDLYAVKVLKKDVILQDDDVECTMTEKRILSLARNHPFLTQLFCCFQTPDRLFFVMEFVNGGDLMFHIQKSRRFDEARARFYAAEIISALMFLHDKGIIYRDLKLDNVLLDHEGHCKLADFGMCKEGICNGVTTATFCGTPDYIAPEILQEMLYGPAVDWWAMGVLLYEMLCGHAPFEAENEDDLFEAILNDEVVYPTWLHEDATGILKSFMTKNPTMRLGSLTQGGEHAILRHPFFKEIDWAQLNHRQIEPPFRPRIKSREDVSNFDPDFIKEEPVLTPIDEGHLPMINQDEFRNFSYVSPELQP
Sequence of PIK3C2G (human) (O75747 whole entry, looked up): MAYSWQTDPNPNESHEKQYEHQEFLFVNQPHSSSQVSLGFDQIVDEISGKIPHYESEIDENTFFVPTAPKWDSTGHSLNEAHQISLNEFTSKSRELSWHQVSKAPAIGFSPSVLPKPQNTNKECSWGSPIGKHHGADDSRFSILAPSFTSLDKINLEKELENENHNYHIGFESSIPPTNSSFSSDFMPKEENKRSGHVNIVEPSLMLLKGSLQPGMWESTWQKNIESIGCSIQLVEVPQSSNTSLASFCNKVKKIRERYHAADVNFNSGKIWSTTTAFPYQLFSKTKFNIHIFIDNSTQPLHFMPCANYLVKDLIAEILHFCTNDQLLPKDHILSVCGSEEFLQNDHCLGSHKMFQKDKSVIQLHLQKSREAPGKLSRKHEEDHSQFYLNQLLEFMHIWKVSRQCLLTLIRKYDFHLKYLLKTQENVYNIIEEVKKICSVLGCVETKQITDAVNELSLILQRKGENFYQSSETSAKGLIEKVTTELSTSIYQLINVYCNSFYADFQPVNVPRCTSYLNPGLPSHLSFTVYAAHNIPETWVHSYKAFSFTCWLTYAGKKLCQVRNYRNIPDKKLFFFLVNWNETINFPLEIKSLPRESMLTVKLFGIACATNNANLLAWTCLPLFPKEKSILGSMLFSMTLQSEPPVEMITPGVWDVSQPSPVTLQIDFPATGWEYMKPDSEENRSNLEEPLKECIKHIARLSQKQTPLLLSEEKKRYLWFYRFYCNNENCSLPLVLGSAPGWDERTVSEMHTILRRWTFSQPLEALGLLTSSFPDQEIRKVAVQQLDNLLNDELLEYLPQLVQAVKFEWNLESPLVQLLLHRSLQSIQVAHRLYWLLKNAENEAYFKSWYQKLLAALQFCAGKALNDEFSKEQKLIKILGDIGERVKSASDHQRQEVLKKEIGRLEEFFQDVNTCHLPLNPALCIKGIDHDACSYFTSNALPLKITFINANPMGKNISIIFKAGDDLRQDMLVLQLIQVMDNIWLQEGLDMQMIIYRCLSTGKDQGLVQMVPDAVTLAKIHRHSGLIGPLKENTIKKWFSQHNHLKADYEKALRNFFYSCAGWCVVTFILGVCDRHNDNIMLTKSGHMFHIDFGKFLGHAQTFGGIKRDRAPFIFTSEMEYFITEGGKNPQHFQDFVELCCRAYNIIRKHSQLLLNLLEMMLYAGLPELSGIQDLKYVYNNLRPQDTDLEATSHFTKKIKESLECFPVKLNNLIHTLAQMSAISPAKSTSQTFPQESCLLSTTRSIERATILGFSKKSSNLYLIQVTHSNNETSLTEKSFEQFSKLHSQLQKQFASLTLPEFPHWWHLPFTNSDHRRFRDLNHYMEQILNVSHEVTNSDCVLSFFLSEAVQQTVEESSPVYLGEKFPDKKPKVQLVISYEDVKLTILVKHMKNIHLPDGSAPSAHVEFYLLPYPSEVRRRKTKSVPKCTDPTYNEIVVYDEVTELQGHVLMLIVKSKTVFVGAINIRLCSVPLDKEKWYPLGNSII

CN(C)C/C=C/C(=O)Nc1cccc(C(=O)Nc2ccc(Nc3nccc(-c4c(-c5ccccc5)nn5ccccc45)n3)cc2)c1
kinase still bound, per cent of control ([1]; compound 1.0 µM): 17% | kinase still bound, per cent of control ([2]; compound 1.0 µM): 100% | kinase still bound, per cent of control ([3]; compound 1.0 µM): 100% | kinase still bound, per cent of control ([4]; compound 1.0 µM): 100% | kinase still bound, per cent of control ([5]; compound 1.0 µM): 11% | kinase still bound, per cent of control ([6]; compound 1.0 µM): 100% | kinase still bound, per cent of control ([7]; compound 1.0 µM): 75% | kinase still bound, per cent of control ([8]; compound 1.0 µM): 66% | kinase still bound, per cent of control ([9]; compound 1.0 µM): 100% | kinase still bound, per cent of control ([10]; compound 1.0 µM): 84% | kinase still bound, per cent of control ([11]; compound 1.0 µM): 83% | kinase still bound, per cent of control ([12]; compound 1.0 µM): 85% | kinase still bound, per cent of control ([13]; compound 1.0 µM): 100% | kinase still bound, per cent of control ([14]; compound 1.0 µM): 100% | kinase still bound, per cent of control ([15]; compound 1.0 µM): 100% | kinase still bound, per cent of control ([16]; compound 1.0 µM): 3.8% | kinase still bound, per cent of control ([17]; compound 1.0 µM): 100% | kinase still bound, per cent of control ([18]; compound 1.0 µM): 80% | kinase still bound, per cent of control ([19]; compound 1.0 µM): 10% | kinase still bound, per cent of control ([20]; compound 1.0 µM): 18% | kinase still bound, per cent of control ([21]; compound 1.0 µM): 100% | kinase still bound, per cent of control ([22]; compound 1.0 µM): 2% | kinase still bound, per cent of control ([23]; compound 1.0 µM): 100% | kinase still bound, per cent of control ([24]; compound 1.0 µM): 97% | kinase still bound, per cent of control ([25]; compound 1.0 µM): 1.6% | kinase still bound, per cent of control ([26]; compound 1.0 µM): 84% | kinase still bound, per cent of control ([27]; compound 1.0 µM): 100% | kinase still bound, per cent of control ([28]; compound 1.0 µM): 1.8% | kinase still bound, per cent of control ([29]; compound 1.0 µM): 100% | kinase still bound, per cent of control ([30]; compound 1.0 µM): 100% | kinase still bound, per cent of control ([31]; compound 1.0 µM): 82% | kinase still bound, per cent of control ([32]; compound 1.0 µM): 100% | kinase still bound, per cent of control ([33]; compound 1.0 µM): 100% | kinase still bound, per cent of control ([34]; compound 1.0 µM): 4.4% | kinase still bound, per cent of control ([35]; compound 1.0 µM): 20% | kinase still bound, per cent of control ([36]; compound 1.0 µM): 92% | kinase still bound, per cent of control ([37]; compound 1.0 µM): 18% | kinase still bound, per cent of control ([38]; compound 1.0 µM): 36% | kinase still bound, per cent of control ([39]; compound 1.0 µM): 98% | kinase still bound, per cent of control ([40]; compound 1.0 µM): 22% | kinase still bound, per cent of control ([41]; compound 1.0 µM): 49% | kinase still bound, per cent of control ([42]; compound 1.0 µM): 94% | kinase still bound, per cent of control ([43]; compound 1.0 µM): 100%

Cc1cc(NC(=O)c2cccc(NC(=O)/C=C/CN(C)C)c2)ccc1Nc1nccc(-c2cccnc2)n1
kinase still bound, per cent of control ([1]; compound 1.0 µM): 96% | kinase still bound, per cent of control ([2]; compound 1.0 µM): 100% | kinase still bound, per cent of control ([3]; compound 1.0 µM): 100% | kinase still bound, per cent of control ([4]; compound 1.0 µM): 62% | kinase still bound, per cent of control ([5]; compound 1.0 µM): 50% | kinase still bound, per cent of control ([6]; compound 1.0 µM): 77% | kinase still bound, per cent of control ([7]; compound 1.0 µM): 49% | kinase still bound, per cent of control ([8]; compound 1.0 µM): 100% | kinase still bound, per cent of control ([9]; compound 1.0 µM): 100% | kinase still bound, per cent of control ([10]; compound 1.0 µM): 99% | kinase still bound, per cent of control ([11]; compound 1.0 µM): 100% | kinase still bound, per cent of control ([12]; compound 1.0 µM): 87% | kinase still bound, per cent of control ([13]; compound 1.0 µM): 81% | kinase still bound, per cent of control ([14]; compound 1.0 µM): 94% | kinase still bound, per cent of control ([15]; compound 1.0 µM): 94% | kinase still bound, per cent of control ([16]; compound 1.0 µM): 100% | kinase still bound, per cent of control ([17]; compound 1.0 µM): 13% | kinase still bound, per cent of control ([18]; compound 1.0 µM): 100% | kinase still bound, per cent of control ([19]; compound 1.0 µM): 90% | kinase still bound, per cent of control ([20]; compound 1.0 µM): 87% | kinase still bound, per cent of control ([21]; compound 1.0 µM): 100% | kinase still bound, per cent of control ([22]; compound 1.0 µM): 73% | kinase still bound, per cent of control ([23]; compound 1.0 µM): 100% | kinase still bound, per cent of control ([24]; compound 1.0 µM): 97% | kinase still bound, per cent of control ([25]; compound 1.0 µM): 84% | kinase still bound, per cent of control ([26]; compound 1.0 µM): 99% | kinase still bound, per cent of control ([27]; compound 1.0 µM): 94% | kinase still bound, per cent of control ([28]; compound 1.0 µM): 100% | kinase still bound, per cent of control ([29]; compound 1.0 µM): 100% | kinase still bound, per cent of control ([30]; compound 1.0 µM): 58% | kinase still bound, per cent of control ([31]; compound 1.0 µM): 100% | kinase still bound, per cent of control ([32]; compound 1.0 µM): 100% | kinase still bound, per cent of control ([33]; compound 1.0 µM): 81% | kinase still bound, per cent of control ([34]; compound 1.0 µM): 71% | kinase still bound, per cent of control ([35]; compound 1.0 µM): 100% | kinase still bound, per cent of control ([36]; compound 1.0 µM): 58% | kinase still bound, per cent of control ([37]; compound 1.0 µM): 100% | kinase still bound, per cent of control ([38]; compound 1.0 µM): 88% | kinase still bound, per cent of control ([39]; compound 1.0 µM): 100% | kinase still bound, per cent of control ([40]; compound 1.0 µM): 96% | kinase still bound, per cent of control ([41]; compound 1.0 µM): 81% | kinase still bound, per cent of control ([42]; compound 1.0 µM): 46% | kinase still bound, per cent of control ([43]; compound 1.0 µM): 94%

Cc1ccc(NC(=O)c2ccc(NC(=O)/C=C/CN(C)C)cc2)cc1Nc1nccc(-c2cccnc2)n1
kinase still bound, per cent of control ([1]; compound 10.0 µM): 85% | kinase still bound, per cent of control ([2]; compound 10.0 µM): 100% | kinase still bound, per cent of control ([3]; compound 10.0 µM): 34% | kinase still bound, per cent of control ([4]; compound 10.0 µM): 32% | kinase still bound, per cent of control ([5]; compound 10.0 µM): 46% | kinase still bound, per cent of control ([6]; compound 10.0 µM): 95% | kinase still bound, per cent of control ([7]; compound 10.0 µM): 61% | kinase still bound, per cent of control ([8]; compound 10.0 µM): 81% | kinase still bound, per cent of control ([9]; compound 10.0 µM): 68% | kinase still bound, per cent of control ([10]; compound 10.0 µM): 70% | kinase still bound, per cent of control ([11]; compound 10.0 µM): 100% | kinase still bound, per cent of control ([12]; compound 10.0 µM): 100% | kinase still bound, per cent of control ([13]; compound 10.0 µM): 100% | kinase still bound, per cent of control ([14]; compound 10.0 µM): 95% | kinase still bound, per cent of control ([15]; compound 10.0 µM): 100% | kinase still bound, per cent of control ([16]; compound 10.0 µM): 100% | kinase still bound, per cent of control ([17]; compound 10.0 µM): 68% | kinase still bound, per cent of control ([18]; compound 10.0 µM): 100% | kinase still bound, per cent of control ([19]; compound 10.0 µM): 81% | kinase still bound, per cent of control ([20]; compound 10.0 µM): 78% | kinase still bound, per cent of control ([21]; compound 10.0 µM): 100% | kinase still bound, per cent of control ([22]; compound 10.0 µM): 55% | kinase still bound, per cent of control ([23]; compound 10.0 µM): 100% | kinase still bound, per cent of control ([24]; compound 10.0 µM): 80% | kinase still bound, per cent of control ([25]; compound 10.0 µM): 59% | kinase still bound, per cent of control ([26]; compound 10.0 µM): 94% | kinase still bound, per cent of control ([27]; compound 10.0 µM): 87% | kinase still bound, per cent of control ([28]; compound 10.0 µM): 62% | kinase still bound, per cent of control ([29]; compound 10.0 µM): 35% | kinase still bound, per cent of control ([30]; compound 10.0 µM): 91% | kinase still bound, per cent of control ([31]; compound 10.0 µM): 62% | kinase still bound, per cent of control ([32]; compound 10.0 µM): 20% | kinase still bound, per cent of control ([33]; compound 10.0 µM): 45% | kinase still bound, per cent of control ([34]; compound 10.0 µM): 0.4% | kinase still bound, per cent of control ([35]; compound 10.0 µM): 100% | kinase still bound, per cent of control ([36]; compound 10.0 µM): 41% | kinase still bound, per cent of control ([37]; compound 10.0 µM): 100% | kinase still bound, per cent of control ([38]; compound 10.0 µM): 77% | kinase still bound, per cent of control ([39]; compound 10.0 µM): 89% | kinase still bound, per cent of control ([40]; compound 10.0 µM): 100% | kinase still bound, per cent of control ([41]; compound 10.0 µM): 3.4% | kinase still bound, per cent of control ([42]; compound 10.0 µM): 83% | kinase still bound, per cent of control ([43]; compound 10.0 µM): 100%

— the kinase profiling compilation of Christmann-Franck et al. (2016)
